One assay concerns the target T1, THR beta-LBD (Homo sapiens, UniProt P10828).
T1 construct: THR alpha-LBD (0.4 nM final concentration) or THR beta-LBD (1.0 nM final concentration) was added; purchased ThermoFisher
T1 sequence (P10828 217-461 limits assumed): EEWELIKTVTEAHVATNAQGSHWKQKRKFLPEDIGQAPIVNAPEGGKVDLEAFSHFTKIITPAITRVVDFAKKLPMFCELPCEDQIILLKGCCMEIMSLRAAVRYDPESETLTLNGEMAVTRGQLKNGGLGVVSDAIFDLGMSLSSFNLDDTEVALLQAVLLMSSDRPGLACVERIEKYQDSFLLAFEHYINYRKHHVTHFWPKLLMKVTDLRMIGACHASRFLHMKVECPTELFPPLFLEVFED
The experiment in a line: LanthaScreen TR-FRET Thyroid Receptor beta Coactivator Assay. It counts as biochemical. As to conditions: for THRβ-Selectivity: THR beta over THR alpha, derived from T3-selectivity normalized data; for EC50: TR-FRET coactivator assay, 2 hours incubation at room temperature, run in duplicate multiple times, average data, read-out: EC50 THRβ-FRET. The method, then: LanthaScreen™ TR-FRET Thyroid Receptor alpha Coactivator Assay kit (ThermoFisher) and LanthaScreen™ TR-FRET Thyroid Receptor beta Coactivator Assay kit (ThermoFisher) were used for agonist compound screening. […] Buffer C (ThermoFisher) was added to each well before the 4× mixture of fluorescein-SCR2-2 coactivator (200 nM final concentration), Terbium-labeled anti-GST antibody (2 nM final concentration), and THR alpha-LBD (0.4 nM final concentration) or THR beta-LBD (1.0 nM final concentration) was added.
On the technique in general: In TR-FRET formats the signal depends on donor and acceptor labels being close together.

A further assay has as its target T2, THR alpha-LBD (Homo sapiens, UniProt P10827).
T2 construct: THR alpha-LBD (0.4 nM final concentration) or THR beta-LBD (1.0 nM final concentration) was added; purchased ThermoFisher
The experiment in a line: LanthaScreen TR-FRET Thyroid Receptor alpha Coactivator Assay. It counts as biochemical. The settings on record: 2 hours incubation at room temperature, run in duplicate multiple times, average data, read-out: EC50 THRα-FRET. As for the experimental part:
Example B1: Time-Resolved Fluorescence Resonance Energy Transfer (TR-FRET) Assay for Thyroid Hormone Receptor Agonist Screening
LanthaScreen™ TR-FRET Thyroid Receptor alpha Coactivator Assay kit (ThermoFisher) and LanthaScreen™ TR-FRET Thyroid Receptor beta Coactivator Assay kit (ThermoFisher) were used for agonist compound screening. Compounds in DMSO were diluted using ECHO Liquid Handler (Labcyte Inc.) into 384 plates in 10-point 3-fold series in duplicate (5 micro M final top concentration). Buffer C (ThermoFisher) was added to each well before the 4× mixture of fluorescein-SCR2-2 coactivator (200 nM final concentration), Terbium-labeled anti-GST antibody (2 nM final concentration), and THR alpha-LBD (0.4 nM final concentration) or THR beta-LBD (1.0 nM final concentration) was added. After 2 hours incubation at room temperature in the dark, the TR-FRET signal was measured on an EnVision plate reader (PerkinElmer) with excitation at 340 nm and dual emission readout at 495 and 520 nm with the delay time of 100 micro second and the integration time of 200 micro second. The ratio of emission signal at 520 and at 495 was used to calculate EC50 using GraphPad Prism (GraphPad Software). […] Compounds' THR-beta selectivity values in Table 2 are derived from T3-selectivity normalized data.

T2 sequence (P10827 163-410 isoform P10827-2 limits assumed, other chains not shown): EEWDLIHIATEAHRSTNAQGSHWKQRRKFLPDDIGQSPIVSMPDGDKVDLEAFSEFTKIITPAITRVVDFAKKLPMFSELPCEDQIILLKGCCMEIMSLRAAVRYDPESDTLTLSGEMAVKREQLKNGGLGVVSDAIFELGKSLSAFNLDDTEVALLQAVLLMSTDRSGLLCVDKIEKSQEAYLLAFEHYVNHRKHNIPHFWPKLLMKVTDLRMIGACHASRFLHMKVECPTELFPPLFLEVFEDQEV

The EC50 is the concentration needed to bring the measured effect to its halfway point. With `CC(=O)c1cc(Oc2c(Cl)cc(-c3n[nH]c(=O)[nH]c3=O)cc2Cl)nn(C)c1=O` [Compound 35, 6-(4-((5-acetyl-1-methyl-6-oxo-1,6-dihydropyridazin-3-yl)oxy)-3,5-dichlorophenyl)-1,2,4-triazine-3,5(2H,4H)-dione], at THR beta-LBD, the THRβ-Selectivity worked out at 10.6. Besides, the figures for the concentration giving a half-maximal response (EC50) at THR beta-LBD and at THR alpha-LBD were 665 nM and 1870 nM, respectively.
On THR beta-LBD, `CC(C)c1cc(Oc2c(Cl)cc(-c3n[nH]c(=O)[nH]c3=O)cc2Cl)nn(C)c1=O` [Compound 1, 6-(3,5-dichloro-4-((5-isopropyl-1-methyl-6-oxo-1,6-dihydropyridazin-3-yl)oxy)phenyl)-1,2,4-triazine-3,5(2H,4H)-dione] showed a THRβ-Selectivity of 17. The half-maximal effective concentration (EC50) on THR beta-LBD is 24.7 nM; at THR alpha-LBD, 79.2 nM.
The matching figures for `CC(C)c1cc(Cc2c(Cl)cc(-c3n[nH]c(=O)[nH]c3=O)cc2Cl)n[nH]c1=O` [Compound 15, 6-(3,5-dichloro-4-((5-isopropyl-6-oxo-1,6-dihydropyridazin-3-yl)methyl)phenyl)-1,2,4-triazine-3,5(2H,4H)-dione]: 31.2, 381 nM and 3340 nM.
On to `CC(C)c1cc(Oc2c(Cl)cc(-c3n[nH]c(=O)[nH]c3=O)c(F)c2Cl)nn(C)c1=O` [Compound 25, 6-(3,5-dichloro-2-fluoro-4-((5-isopropyl-1-methyl-6-oxo-1,6-dihydropyridazin-3-yl)oxy)phenyl)-1,2,4-triazine-3,5(2H,4H)-dione], for which, on THR beta-LBD, the THRβ-Selectivity was determined as 4.4 and the EC50 was found to be 22.2 nM. Also, the concentration giving a half-maximal response (EC50) on THR alpha-LBD turned out to be 25 nM.
On THR beta-LBD (listed as 33 P2), `CC[C@@H](C)c1cc(Oc2c(Cl)cc(-c3n[nH]c(=O)[nH]c3=O)cc2Cl)n[nH]c1=O` (single isomer, unassigned) [Compound 33 P2] gave a THRβ-Selectivity of 14.1. Besides, the concentration for a half-maximal effect (EC50) at THR beta-LBD came to 65.7 nM; at THR alpha-LBD, 274 nM.
For `O=c1[nH]nc(-c2cc(Cl)c(Oc3cc(C4CC4)c(=O)[nH]n3)c(Cl)c2)c(=O)[nH]1` [Compound 6, 6-(3,5-dichloro-4-((5-cyclopropyl-6-oxo-1,6-dihydropyridazin-3-yl)oxy)phenyl)-1,2,4-triazine-3,5(2H,4H)-dione], at THR beta-LBD, the THRβ-Selectivity is recorded as 23.6 and the EC50 is 196 nM. In addition, the EC50 at THR alpha-LBD is 981 nM.
Compound `C[C@@H](O)c1cc(Oc2c(Cl)cc(-c3nn(C)c(=O)[nH]c3=O)cc2Cl)n[nH]c1=O` (single isomer, unassigned) [Compound 31 P1] had a THRβ-Selectivity on THR beta-LBD (listed as 31 P1) greater than 26.2. Besides, the concentration for a half-maximal effect (EC50) on THR beta-LBD is 1200 nM; at THR alpha-LBD it was greater than 5000 nM.
Take `CC(C)c1cc(Oc2c(Cl)cc(-c3nn(CC(F)F)c(=O)[nH]c3=O)cc2Cl)nn(C)c1=O` [Compound 24, 6-(3,5-dichloro-4-((5-isopropyl-1-methyl-6-oxo-1,6-dihydropyridazin-3-yl)oxy)phenyl)-2-(2,2-difluoroethyl)-1,2,4-triazine-3,5(2H,4H)-dione]: on THR beta-LBD, the THRβ-Selectivity came out at 4.7 and the EC50 was determined as 1190 nM. Also, the EC50 at THR alpha-LBD was found to be 1480 nM.
In the case of `CC(C)c1cc(Oc2c(Cl)cc(-c3nn(CC(F)F)c(=O)[nH]c3=O)cc2Cl)n[nH]c1=O` [Compound 23, 6-(3,5-dichloro-4-((5-isopropyl-6-oxo-1,6-dihydropyridazin-3-yl)oxy)phenyl)-2-(2,2-difluoroethyl)-1,2,4-triazine-3,5(2H,4H)-dione], on THR beta-LBD, the THRβ-Selectivity was determined as 9.2 and the EC50 is 1380 nM. The EC50 on THR alpha-LBD was determined as 3230 nM.
The matching figures for `CCC(CC)c1cc(Oc2c(Cl)cc(-c3nn(C)c(=O)[nH]c3=O)cc2Cl)n[nH]c1=O` [Compound 27, 6-(3,5-dichloro-4-((6-oxo-5-(pentan-3-yl)-1,6-dihydropyridazin-3-yl)oxy)phenyl)-2-methyl-1,2,4-triazine-3,5(2H,4H)-dione]: 33.9, 213 nM and 1750 nM.
Turning to `CC(C)c1cc(Oc2c(Cl)cc(-c3nn(CC(F)(F)F)c(=O)[nH]c3=O)cc2Cl)n[nH]c1=O` [Compound 21, 6-(3,5-dichloro-4-((5-isopropyl-6-oxo-1,6-dihydropyridazin-3-yl)oxy)phenyl)-2-(2,2,2-trifluoroethyl)-1,2,4-triazine-3,5(2H,4H)-dione], on THR beta-LBD, the THRβ-Selectivity is recorded as greater than 9.5 and the EC50 worked out at 2880 nM. Further, on THR alpha-LBD, the EC50 was greater than 5000 nM.
The matching figures for `CC(C)c1cc(Cc2c(Cl)cc(-c3nn(C)c(=O)[nH]c3=O)cc2Cl)n[nH]c1=O` [Compound 16, 6-(3,5-dichloro-4-((5-isopropyl-6-oxo-1,6-dihydropyridazin-3-yl)methyl)phenyl)-2-methyl-1,2,4-triazine-3,5(2H,4H)-dione]: 28.3, 163 nM and 1210 nM.
